According to US20250205158A1, “BIODEGRADABLE LIPIDS AND FORMULATIONS FOR DELIVERY OF MRNA” (Massachusetts Institute of Technology, priority 2023, published 2025):
Values joined by “and” are separate entries in the source; they are usually repeats but may differ in a detail not shown here. Identical values can stand only once. Like-named read-outs stand apart in the source and are kept apart here.

What was measured:
[1] = system: mice; settings: for protein expression relative to MD-1: in vitro and in vivo via intramuscular administration (FIGS. 6A-6B)
Protocol: Evaluation of the LNPs via intramuscular injection. The in vivo potency of the ionizable lipids was screened through intramuscular injection of LNPs loaded with mRNA encoding firefly luciferase protein. These LNPs were formulated with a molar composition of (35:16:46.5:2.5) using one of the synthesized ionizable lipids, DOPE as a helper lipid, cholesterol, and DMPE-PEG respectively. mRNA-loaded LNPs were intramuscularly administered in mice at a dose of 1 μg, and expression of luciferase protein was monitored at 6 hours via IVIS bioluminescent imaging (FIG. 3). […] Without wishing to be bound by theory, increased levels of protein expression may enhance the response to vaccination.
In Vitro and In Vivo Screening of AMG Lipid Library. Following synthesis, the mRNA delivery efficacy of the AMG lipids was evaluated through both in vitro and in vivo screens. To screen the first generation of AMG lipids (FIGS. 11B and 11C), firefly luciferase (FLuc) mRNA was encapsulated into LNPs using a previously reported formulation containing ionizable lipid, 1,2-dioleoyl-sn-glycero-3-phosphoethanolamine (DOPE), cholesterol, and 1,2-dimyristoyl-rac-glycero-3-methoxypolyethylene glycol-2000 (DMG-PEG).^19 C2C12 myoblast cells were treated with these LNPs and FLuc expression was evaluated at 24 hrs. (FIG. 16). […] Each of these batches was then injected IM into the quadriceps of mice, and expression was characterized via IVIS imaging (Screen 1, FIG. 11E).
AMG lipids for enhanced mRNA delivery and improved tolerability. A rational design approach was used to further vary the ionizable lipid structure to enhance the mRNA delivery and immunogenicity. […] The lipid tail structure was varied to promote efficient LNP self-assembly while simultaneously promoting endosomal membrane disruption.^18 Monounsaturated (G41-G44) or fully saturated (GC12-GC18) lipid tails were developed. […] Without wishing to be bound by any particular theory, tail length may impact membrane fusion and endosomal escape.^10,11
Next, the headgroup was further modified to further improve delivery. Headgroups play a multifunctional role including enhancing LNP-mRNA interactions, promoting membrane-LNP fusion and endosomal escape which all contribute to mRNA delivery.^23 A series of similar aza-crown ethers were used to further investigate structure-activity relationship and enhance mRNA delivery. These headgroups featured between three and eight nitrogens linked by varying length of methylene chains. Each of these headgroups were reacted with tail G41 to synthesize a next generation of AMG lipids, which were then formulated with FLuc mRNA and evaluated for mRNA delivery following IM administration in mice (FIG. 12B).

[2] = LNP characterization (diameter, PDI, % EE); format: physicochemical; settings: LNP formulated with the named lipid; for Diameter (nm) / PDI: dynamic light scattering; for EE %: Ribogreen assay
Protocol: Representative LNP Characterization Data. The diameter, polydispersity index (PDI), and % EE were characterized for various LNPs.
LNP characterization. Concentration of mRNA was determined using a Quant-IT Ribogreen assay. LNPs were diluted in either native TE buffer (ThermoFisher) or denaturing TE buffer+0.5% Triton-X 100 (Millipore-Sigma) to measure the “free” and total mRNA, respectively. 100 μL of these unknowns were added to a black 96-well plate. Separately, standard curves ranging from 2 ng/μL-0 ng/μL were prepared in each of these buffers and 100 μL were added to the same 96-well plate. Finally, Quant-IT Ribogreen reagent (ThermoFisher) was diluted 1:200 in TE buffer and 100 μL of this solution was added to each of the wells. The well plate was then mixed at 400 rpm with a plate shaker for 5 mins. and the fluorescence was read with an excitation/emission of 485/535. LNPs were measured in triplicate and standards were measured in duplicate. RNA concentration in each of the unknown wells was calculated by fitting the standard curves with a linear trendline. Encapsulation efficiency (% EE) was calculated according to: […]
Dynamic light scattering and zeta potential measurements were performed using a Malvern Zetasizer system. The reported diameter and PDI were obtained from the cumulants fit of the autocorrelation function. Zeta potential measurements were performed in 0.1×PBS, pH 7.4 and calculated using the Smoluchowski approximation.

[3] = system: BALB/c mice; settings: spike mRNA LNPs on day 0 and day 21, serum day 35
Protocol: Briefly, 6-8 week old BALB/c mice were vaccinated with 1 g of mRNA LNPs on day 0 and on day 21, and serum was collected on day 35 to characterize the antibody response to vaccination.
Immunization studies. […] All LNPs were injected IM in the quadricep with an injection volume of 50 μL with the doses specified in the main text. All vaccination experiments followed a prime-boost dosing regimen with doses given on day 0 and day 21. On day 35, mice were sacrificed, and blood was collected via cardiac puncture and their spleens were collected for further characterization.
Binding antibody ELISAs. […] Plates were coated overnight at 4° C. by adding 100 μL of a 1 μg/mL antigen solution in 100 mM carbonate buffer, pH 9.6 to each well. The coated plates were then washed with ELISA wash buffer (Biolegend) and blocked for 1 hr. at room temperature (RT) with 150 μL of 1% BSA in PBS. The plate was then washed again, and 100 μL of serially diluted serum samples were then added to the plate and incubated at RT for 1 hr. Next, the plate was washed and the secondary goat anti-mouse IgG, HRP antibody (ThermoFisher) was diluted 1:3,000. 100 μL of this solution added to each well an incubated at RT for 1 hr. After incubation, the plate was washed and 100 μL of TMB chromogen solution (ThermoFisher) was added to each well and incubated for 30 mins. Finally, the HRP reaction was stopped by the addition of 100 μL of 0.5 M H2SO4. The absorbance of each well was immediately read at 450 nm with 600 nm as a reference using an Infinite M200 Pro (Tecan) plate reader. The resultant data were then fit with a 4-PL sigmodal curve and the endpoint titers were taken as the point at which this curve crossed four times the absorbance of the blank wells.

[4] = tissue not named

Structure (SMILES): CCCCCCCCC=CCCCCCCCC(=O)OCC(O)CN1CCCN(CC(O)COC(=O)CCCCCCCC=CCCCCCCCC)CCN(CC(O)COC(=O)CCCCCCCC=CCCCCCCCC)CCCN(CC(O)COC(=O)CCCCCCCC=CCCCCCCCC)CC1 (mixture of isomers) [AMG104]
- fold higher mRNA expression than the next best lipid AMG1010 ([1]; Screen 3, IM, 1 μg, imaged 24 hours post injection): ~5 fold

Structure (SMILES): CCCCCC/C=C\CCCC(=O)OCC(O)CN1CCCN(CC(O)COC(=O)CCC/C=C\CCCCCC)CCN(CC(O)COC(=O)CCC/C=C\CCCCCC)CCCN(CC(O)COC(=O)CCC/C=C\CCCCCC)CC1 (stereo not drawn) [AMG1041]
- Diameter (nm) [2]: 81.79 nm
- PDI [2]: 0.113
- antibody titers after vaccination [3]: high levels of antibody titers
- fold higher expression than AMG104 ([1]; IM, tail derivatives, 5 μg, 24 hours): ~3 fold
- [AMG1041] ng/g tissue ([4]; Time 0 hrs): 0 ng/g tissue
- [AMG1041] ng/g tissue ([4]; Time 1 hrs): 32200 ng/g tissue and 24800 ng/g tissue and 28000 ng/g tissue
- [AMG1041] ng/g tissue ([4]; Time 2 hrs): 14000 ng/g tissue and 23400 ng/g tissue and 20400 ng/g tissue
- [AMG1041] ng/g tissue ([4]; Time 4 hrs): 17200 ng/g tissue and 12600 ng/g tissue and 9400 ng/g tissue
- [AMG1041] ng/g tissue ([4]; Time 8 hrs): 4800 ng/g tissue and 8000 ng/g tissue
- [AMG1041] ng/g tissue ([4]; Time 24 hrs): 600 ng/g tissue

Structure (SMILES): CCCCCC/C=C\CCCCCCCC(=O)OCC(O)CN1CCCN(CC(O)COC(=O)CCCCCCC/C=C\CCCCCC)CCN(CC(O)COC(=O)CCCCCCC/C=C\CCCCCC)CCCN(CC(O)COC(=O)CCCCCCC/C=C\CCCCCC)CC1 (stereo not drawn) [AMG1043]
- Diameter (nm) [2]: 79.27 nm
- PDI [2]: 0.169

Structure (SMILES): CCCCC/C=C\CCCCC(=O)OCC(O)CN1CCN(CC(O)COC(=O)CCCC/C=C\CCCCC)CCN(CC(O)COC(=O)CCCC/C=C\CCCCC)CCN(CC(O)COC(=O)CCCC/C=C\CCCCC)CCN(CC(O)COC(=O)CCCC/C=C\CCCCC)CCN(CC(O)COC(=O)CCCC/C=C\CCCCC)CC1 (stereo not drawn) [AMG1547]
- EE % [2]: 85.33%
- Diameter (nm) [2]: 100 nm
- PDI [2]: 0.142
- protein expression relative to MD-1 [1]: superseded or matched MD-1

Structure (SMILES): CCCC/C=C\CCCCCC(=O)OCC(O)CN1CCN(CC(O)COC(=O)CCCCC/C=C\CCCC)CCN(CC(O)COC(=O)CCCCC/C=C\CCCC)CCN(CC(O)COC(=O)CCCCC/C=C\CCCC)CCN(CC(O)COC(=O)CCCCC/C=C\CCCC)CCN(CC(O)COC(=O)CCCCC/C=C\CCCC)CC1 (stereo not drawn) [AMG1548]
- EE % [2]: 54.6%
- Diameter (nm) [2]: 104.7 nm
- PDI [2]: 0.106
- protein expression relative to MD-1 [1]: superseded or matched MD-1

Structure (SMILES): CCC/C=C\CCCCCCC(=O)OCC(O)CN1CCN(CC(O)COC(=O)CCCCCC/C=C\CCC)CCN(CC(O)COC(=O)CCCCCC/C=C\CCC)CCN(CC(O)COC(=O)CCCCCC/C=C\CCC)CCN(CC(O)COC(=O)CCCCCC/C=C\CCC)CCN(CC(O)COC(=O)CCCCCC/C=C\CCC)CC1 (stereo not drawn) [AMG1549]
- EE % [2]: 56.9%
- Diameter (nm) [2]: 100.4 nm
- PDI [2]: 0.234
- protein expression relative to MD-1 [1]: superseded or matched MD-1

Structure (SMILES): CC/C=C\CCCCCCCC(=O)OCC(O)CN1CCN(CC(O)COC(=O)CCCCCCC/C=C\CC)CCN(CC(O)COC(=O)CCCCCCC/C=C\CC)CCN(CC(O)COC(=O)CCCCCCC/C=C\CC)CCN(CC(O)COC(=O)CCCCCCC/C=C\CC)CCN(CC(O)COC(=O)CCCCCCC/C=C\CC)CC1 (stereo not drawn) [AMG1550]
- EE % [2]: 78.09%
- Diameter (nm) [2]: 93 nm
- PDI [2]: 0.119
- protein expression relative to MD-1 [1]: superseded or matched MD-1

Structure (SMILES): C/C=C\CCCCCCCCC(=O)OCC(O)CN1CCN(CC(O)COC(=O)CCCCCCCC/C=C\C)CCN(CC(O)COC(=O)CCCCCCCC/C=C\C)CCN(CC(O)COC(=O)CCCCCCCC/C=C\C)CCN(CC(O)COC(=O)CCCCCCCC/C=C\C)CCN(CC(O)COC(=O)CCCCCCCC/C=C\C)CC1 (stereo not drawn) [AMG1551]
- EE % [2]: 67.41%
- Diameter (nm) [2]: 77 nm
- PDI [2]: 0.145
- in vivo mRNA delivery of alkene walking tail derivatives ([1]; IM, 0.1 μg, 6 hours): loss in potency

Structure (SMILES): CCCC/C=C\C/C=C\CCC(=O)OCC(O)CN1CCN(CC(O)COC(=O)CC/C=C\C/C=C\CCCC)CCN(CC(O)COC(=O)CC/C=C\C/C=C\CCCC)CCN(CC(O)COC(=O)CC/C=C\C/C=C\CCCC)CCN(CC(O)COC(=O)CC/C=C\C/C=C\CCCC)CCN(CC(O)COC(=O)CC/C=C\C/C=C\CCCC)CC1 (stereo not drawn) [AMG1553]
- EE % [2]: 89.0186%
- Diameter (nm) [2]: 94 nm
- PDI [2]: 0.09
- protein expression relative to MD-1 [1]: superseded or matched MD-1

Structure (SMILES): CCC/C=C\C/C=C\CCCC(=O)OCC(O)CN1CCN(CC(O)COC(=O)CCC/C=C\C/C=C\CCC)CCN(CC(O)COC(=O)CCC/C=C\C/C=C\CCC)CCN(CC(O)COC(=O)CCC/C=C\C/C=C\CCC)CCN(CC(O)COC(=O)CCC/C=C\C/C=C\CCC)CCN(CC(O)COC(=O)CCC/C=C\C/C=C\CCC)CC1 (stereo not drawn) [AMG1554]
- EE % [2]: 91.711%
- Diameter (nm) [2]: 105 nm
- PDI [2]: 0.1
- protein expression relative to MD-1 [1]: superseded or matched MD-1

Structure (SMILES): CC/C=C\C/C=C\CCCCC(=O)OCC(O)CN1CCN(CC(O)COC(=O)CCCC/C=C\C/C=C\CC)CCN(CC(O)COC(=O)CCCC/C=C\C/C=C\CC)CCN(CC(O)COC(=O)CCCC/C=C\C/C=C\CC)CCN(CC(O)COC(=O)CCCC/C=C\C/C=C\CC)CCN(CC(O)COC(=O)CCCC/C=C\C/C=C\CC)CC1 (stereo not drawn) [AMG1555]
- EE % [2]: 88.37%
- Diameter (nm) [2]: 83 nm
- PDI [2]: 0.077
- protein expression relative to MD-1 [1]: superseded or matched MD-1

Structure (SMILES): C/C=C\C/C=C\CCCCCC(=O)OCC(O)CN1CCN(CC(O)COC(=O)CCCCC/C=C\C/C=C\C)CCN(CC(O)COC(=O)CCCCC/C=C\C/C=C\C)CCN(CC(O)COC(=O)CCCCC/C=C\C/C=C\C)CCN(CC(O)COC(=O)CCCCC/C=C\C/C=C\C)CCN(CC(O)COC(=O)CCCCC/C=C\C/C=C\C)CC1 (stereo not drawn) [AMG1556]
- EE % [2]: 85.76%
- Diameter (nm) [2]: 96 nm
- PDI [2]: 0.121
- protein expression relative to MD-1 [1]: superseded or matched MD-1

Structure (SMILES): CCCCCC/C=C\CCCCOC(=O)CCN1CCN(CCC(=O)OCCCC/C=C\CCCCCC)CCN(CCC(=O)OCCCC/C=C\CCCCCC)CCN(CCC(=O)OCCCC/C=C\CCCCCC)CCN(CCC(=O)OCCCC/C=C\CCCCCC)CCN(CCC(=O)OCCCC/C=C\CCCCCC)CC1 [AMG1559]
- fold drop in transfection versus AMG1541 ([1]; IM, analogue without β-amino alcohol): 34 fold

Structure (SMILES): CCCCCC/C=C\CCCC(=O)OCC(O)CN1CCN(CC(O)COC(=O)CCC/C=C\CCCCCC)CCN(CC(O)COC(=O)CCC/C=C\CCCCCC)CCN(CC(O)COC(=O)CCC/C=C\CCCCCC)CCN(CC(O)COC(=O)CCC/C=C\CCCCCC)CCN(CC(O)COC(=O)CCC/C=C\CCCCCC)CCN(CC(O)COC(=O)CCC/C=C\CCCCCC)CC1 (stereo not drawn) [AMG1741]
- EE % [2]: 82.99%
- Diameter (nm) [2]: 88 nm
- PDI [2]: 0.156
- antibody titers after vaccination [3]: high levels of antibody titers
